Experimental data taken from US10167262B2, “Herbicidal substituted 3-arylpyrazoles” (FMC CORPORATION, priority 2014, dated 2019).

Columns and labels:
Type in all cases: in vivo
[1] = test system: woolly cupgrass (Eriochloa villosa); test: Test C postemergence greenhouse test, plant response rating 0-100
Method in brief: (§1)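 Postemergence spray onto 1–4-leaf potted seedlings, greenhouse incubation 13–15 days. Visual percent-control rating (0–100) against untreated plants.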

[2] = test system: cocklebur (common cocklebur, Xanthium strumarium); test: as above
Method in brief: as §1

[3] = test system: deadnettle (henbit deadnettle, Lamium amplexicaule); test: as above
Method in brief: as §1

[4] = test system: canarygrass (Phalaris minor); test: as above
Method in brief: as §1

[5] = test system: winter barley (Hordeum vulgare); test: as above
Method in brief: as §1

[6] = test system: downy bromegrass (Bromus tectorum); test: as above
Method in brief: as §1

[7] = test system: surinam grass (Brachiaria decumbens); test: as above
Method in brief: as §1

[8] = test system: windgrass (Apera spica-venti); test: as above
Method in brief: as §1

[9] = test system: green foxtail (Setaria viridis); test: as above
Method in brief: as §1

[10] = test system: barnyardgrass (Echinochloa crus-galli); test: Test C pre-/postemergence greenhouse test, plant response rating 0-100
Method in brief: (§2)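 Plants were scored visually against controls 13–15 days after treatment on a 0–100 scale, 100 meaning complete control. Test chemicals, formulated in surfactant-containing non-phytotoxic solvent, went preemergence onto seeds in loam–sand blend or postemergence onto 1- to 4-leaf plants (2–18 cm) grown in peat-based mix.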

[11] = test system: waterhemp (common waterhemp, Amaranthus rudis); test: as above
Method in brief: as §2

[12] = test system: oilseed rape (Brassica napus); test: as above
Method in brief: as §2

[13] = Postemergence, 250 g ai/ha, scale 0 to 100

Clc1cc(Cl)cc(-c2n[nH]cc2C(=NN2CCCC2)c2ccccc2)c1 [Compound 30, N-[[3-(3,5-dichlorophenyl)-1H-pyrazol-4-yl]phenylmethylene]-1-pyrrolidinamine]
Plant response rating (0 to 100), Cupgrass, Woolly ([1]; 31 g ai/ha): 0 | Plant response rating (0 to 100), Cupgrass, Woolly ([1]; 62 g ai/ha): 0 | Plant response rating (0 to 100), Cupgrass, Woolly ([1]; 125 g ai/ha): 0 | Plant response rating, Cupgrass, Woolly ([1]; 250 g ai/ha, scale 0 to 100): 0 | Plant response rating (0 to 100), Cocklebur ([2]; 31 g ai/ha): 10 | Plant response rating (0 to 100), Deadnettle ([3]; 31 g ai/ha): 0 | Plant response rating (0 to 100), Deadnettle ([3]; 62 g ai/ha): 0 | Plant response rating (0 to 100), Deadnettle ([3]; 125 g ai/ha): 0 | Plant response rating, Deadnettle ([3]; 250 g ai/ha, scale 0 to 100): 0 | Plant response rating (0 to 100), Canarygrass ([4]; 31 g ai/ha): 0 | Plant response rating (0 to 100), Canarygrass ([4]; 62 g ai/ha): 0 | Plant response rating (0 to 100), Canarygrass ([4]; 125 g ai/ha): 0 | Plant response rating, Canarygrass ([4]; 250 g ai/ha, scale 0 to 100): 0 | Plant response rating (0 to 100), Barley ([5]; 31 g ai/ha): 0 | Plant response rating (0 to 100), Barley ([5]; 62 g ai/ha): 0 | Plant response rating, Barley ([5]; 125 g ai/ha, scale 0 to 100): 0 | Plant response rating, Barley ([5]; 250 g ai/ha, scale 0 to 100): 0 | Plant response rating (0 to 100), Bromegrass, Downy ([6]; 31 g ai/ha): 0 | Plant response rating (0 to 100), Bromegrass, Downy ([6]; 62 g ai/ha): 0 | Plant response rating, Bromegrass, Downy ([6]; 125 g ai/ha, scale 0 to 100): 0 | Plant response rating, Bromegrass, Downy ([6]; 250 g ai/ha, scale 0 to 100): 0 | Plant response rating (0 to 100), Surinam Grass ([7]; 62 g ai/ha): 0 | Plant response rating (0 to 100), Surinam Grass ([7]; 125 g ai/ha): 0 | Plant response rating, Surinam Grass ([7]; 250 g ai/ha, scale 0 to 100): 0 | Plant response rating (0 to 100), Windgrass ([8]; 62 g ai/ha): 0 | Plant response rating (0 to 100), Windgrass ([8]; 125 g ai/ha): 0 | Plant response rating, Windgrass ([8]; 250 g ai/ha, scale 0 to 100): 0 | Plant response rating (0 to 100), Foxtail, Green ([9]; 31 g ai/ha): 0 | Plant response rating (0 to 100), Foxtail, Green ([9]; 62 g ai/ha): 0 | Plant response rating (0 to 100), Foxtail, Green ([9]; 125 g ai/ha): 0 | Plant response rating, Foxtail, Green ([9]; 250 g ai/ha, scale 0 to 100): 0 | Plant response rating, Barnyardgrass ([10]; Preemergence, 62 g ai/ha): 0 | Plant response rating, Barnyardgrass ([10]; Preemergence, 125 g ai/ha): 0 | Plant response rating, Barnyardgrass ([10]; Preemergence, 250 g ai/ha): 0 | Plant response rating, Barnyardgrass ([10]; Preemergence, 500 g ai/ha): 0 | Plant response rating, Waterhemp ([11]; Preemergence, 62 g ai/ha): 100 | Plant response rating, Waterhemp ([11]; Preemergence, 125 g ai/ha): 100 | Plant response rating, Waterhemp ([11]; Preemergence, 250 g ai/ha): 100 | Plant response rating, Waterhemp ([11]; Preemergence, 500 g ai/ha): 100 | Plant response rating, Oilseed Rape ([12]; Preemergence, 62 g ai/ha): 50 | Plant response rating, Oilseed Rape ([12]; Preemergence, 125 g ai/ha): 80 | Plant response rating, Oilseed Rape ([12]; Preemergence, 250 g ai/ha): 85 | Plant response rating, Oilseed Rape ([12]; Preemergence, 500 g ai/ha): 100

CCn1cc(C(=O)c2ccccc2)c(-c2cc(Cl)cc(Cl)c2)n1 [Compound 31, [3-(3,5-dichlorophenyl)-1-ethyl-1H-pyrazol-4-yl]phenylmethanone]
Plant response rating, Cupgrass, Woolly ([1]; 16 g ai/ha): 5 | Plant response rating (0 to 100), Cupgrass, Woolly ([1]; 31 g ai/ha): 5 | Plant response rating (0 to 100), Cupgrass, Woolly ([1]; 62 g ai/ha): 5 | Plant response rating (0 to 100), Cupgrass, Woolly ([1]; 125 g ai/ha): 5 | Plant response rating, Cocklebur ([2]; 16 g ai/ha): 10 | Plant response rating (0 to 100), Cocklebur ([2]; 31 g ai/ha): 20 | Plant response rating (0 to 100), Cocklebur ([2]; 62 g ai/ha): 20 | Plant response rating (0 to 100), Cocklebur ([2]; 125 g ai/ha): 25 | Plant response rating, Deadnettle ([3]; 16 g ai/ha): 0 | Plant response rating (0 to 100), Deadnettle ([3]; 31 g ai/ha): 0 | Plant response rating (0 to 100), Deadnettle ([3]; 62 g ai/ha): 0 | Plant response rating (0 to 100), Deadnettle ([3]; 125 g ai/ha): 10 | Plant response rating, Canarygrass ([4]; 16 g ai/ha): 0 | Plant response rating (0 to 100), Canarygrass ([4]; 31 g ai/ha): 0 | Plant response rating (0 to 100), Canarygrass ([4]; 62 g ai/ha): 0 | Plant response rating (0 to 100), Canarygrass ([4]; 125 g ai/ha): 0 | Plant response rating, Barley ([5]; 16 g ai/ha): 0 | Plant response rating (0 to 100), Barley ([5]; 31 g ai/ha): 0 | Plant response rating (0 to 100), Barley ([5]; 62 g ai/ha): 0 | Plant response rating (0 to 100), Barley ([5]; 125 g ai/ha): 0 | Plant response rating, Bromegrass, Downy ([6]; 16 g ai/ha): 0 | Plant response rating (0 to 100), Bromegrass, Downy ([6]; 31 g ai/ha): 0 | Plant response rating (0 to 100), Bromegrass, Downy ([6]; 62 g ai/ha): 0 | Plant response rating (0 to 100), Bromegrass, Downy ([6]; 125 g ai/ha): 0 | Plant response rating, Surinam Grass ([7]; 16 g ai/ha): 5 | Plant response rating (0 to 100), Surinam Grass ([7]; 62 g ai/ha): 5 | Plant response rating (0 to 100), Surinam Grass ([7]; 125 g ai/ha): 5 | Plant response rating, Windgrass ([8]; 16 g ai/ha): 0 | Plant response rating (0 to 100), Windgrass ([8]; 62 g ai/ha): 0 | Plant response rating (0 to 100), Windgrass ([8]; 125 g ai/ha): 0 | Plant response rating, Foxtail, Green ([9]; 16 g ai/ha): 0 | Plant response rating (0 to 100), Foxtail, Green ([9]; 31 g ai/ha): 0 | Plant response rating (0 to 100), Foxtail, Green ([9]; 62 g ai/ha): 0 | Plant response rating (0 to 100), Foxtail, Green ([9]; 125 g ai/ha): 0

O=C(c1cncc(F)c1)c1c[nH]nc1-c1cc(Cl)cc(Cl)c1 [Compound 19]
Plant response rating (0 to 100), Barnyardgrass ([10]; Postemergence, 31 g ai/ha): 0 | Plant response rating (0 to 100), Barnyardgrass ([10]; Postemergence, 62 g ai/ha): 0 | Plant response rating, Barnyardgrass ([10]; Postemergence, 125 g ai/ha, scale 0 to 100): 0 | Plant response rating, Barnyardgrass [10, 13]: 0 | Plant response rating, Barnyardgrass ([10]; Preemergence, 31 g ai/ha): 0 | Plant response rating, Barnyardgrass ([10]; Preemergence, 62 g ai/ha): 0 | Plant response rating, Barnyardgrass ([10]; Preemergence, 125 g ai/ha): 0 | Plant response rating, Barnyardgrass ([10]; Preemergence, 250 g ai/ha): 0 | Plant response rating (0 to 100), Waterhemp ([11]; Postemergence, 62 g ai/ha): 65 | Plant response rating (0 to 100), Waterhemp ([11]; Postemergence, 125 g ai/ha): 80 | Plant response rating, Waterhemp [11, 13]: 95 | Plant response rating, Waterhemp ([11]; Preemergence, 62 g ai/ha): 100 | Plant response rating, Waterhemp ([11]; Preemergence, 125 g ai/ha): 100 | Plant response rating, Waterhemp ([11]; Preemergence, 250 g ai/ha): 100 | Plant response rating (0 to 100), Oilseed Rape ([12]; Postemergence, 62 g ai/ha): 0 | Plant response rating (0 to 100), Oilseed Rape ([12]; Postemergence, 125 g ai/ha): 0 | Plant response rating, Oilseed Rape [12, 13]: 5 | Plant response rating, Oilseed Rape ([12]; Preemergence, 31 g ai/ha): 0 | Plant response rating, Oilseed Rape ([12]; Preemergence, 62 g ai/ha): 0 | Plant response rating, Oilseed Rape ([12]; Preemergence, 125 g ai/ha): 80 | Plant response rating, Oilseed Rape ([12]; Preemergence, 250 g ai/ha): 80
